According to a melting point compilation (Tetko et al.; mined from patent text by program, amines drawn as free bases though some values may be those of a salt):

SMILES	melting point [°C]
CCOC(=O)CN(Cc1ccccc1Cl)c1ccc(C(O)(C(F)(F)F)C(F)(F)F)cc1	146
CC(C)c1nc2cc(COc3ccc(C=C4SC(=O)NC4=O)cc3)ccc2o1	219 to 221
NNC(=O)c1cccc(OCc2csc(-c3ccccc3F)n2)c1	143 to 145
COC(=O)CC[C@H](NC(=O)c1ccc(C#Cc2cnc3nc(NC(=O)C(C)(C)C)nc(O)c3c2)s1)C(=O)OC	228 to 230
COC(=O)c1ccc(CN2N=C(C(C)(C)C)CC2=O)cc1	161 to 162
O=C(Nc1ccc(C(CC2CCCC2)C(=O)Nc2ccccn2)cc1)c1cccnc1 (stereo not given)	160 to 163
COc1cccc2c(CCNC3COc4c(F)ccc(C(N)=O)c4C3)coc12 (stereo not given)	172 to 174
CCOCOC1CCC2(C)C(=CCC3C2CCC2(C)C3CC3OC4(CCC(C)CO4)C(C)C32)C1 (stereo not given)	125 to 127
CCCOc1ccc(S(=O)(=O)Nc2ccc3[nH]ncc3c2)cc1-c1nc2cc(N)c([N+](=O)[O-])cc2c(=O)[nH]1	261 to 263
COc1ccc([PH](=O)c2ccc(OC)cc2)cc1	126
Cc1[nH]cnc1CSCCN(C)C(N)=S	149 to 151
C[Si](C)(C)CC(O)(Cn1nc[nH]c1=S)c1ccc(F)cc1 (stereo not given)	107
NS(=O)(=O)c1cc(C=O)co1	281 to 284
N#Cc1cccc(C2=Nc3ccc(C#CC4=CCNCC4)cc3NC(=O)C2)c1	184
CC(CCc1ccc(O)cc1)NCC(O)c1cccc(Cl)c1 (stereo not given)	103 to 110
O=C(O)Cc1c(C(=O)c2ccc3c(c2)OCCO3)[nH]c2cc(Cl)ccc12	233
Cc1ccc(C(C)C)c2c1CC(NNc1ncnc3c1ncn3C1OC(CO)C(O)C1O)CO2 (stereo not given)	98 to 101
COc1ccc(C(O)c2cccnc2)cc1OC (stereo not given)	76 to 78
CS(=O)(=O)c1ccc(-c2nc3cc(C4CCN(C(=O)OCc5ccccc5)CC4)ccc3o2)c(F)c1	172 to 175
N#Cc1cc(-c2cccs2)[nH]c1-c1cccs1	202 to 204
CC(=O)OC1COC(NNC(=O)C(F)(F)F)C(OC(C)=O)C1OC(C)=O (stereo not given)	106
Cc1c(S(=O)(=O)c2ccc(=O)[nH]n2)oc2ccc(Cl)cc12	247 to 248
Cc1ccc(-c2cn(C)cc(-c3ccccc3)c2=O)cc1	144
CCOC(=O)C1=C(NC(=O)Nc2cc(C(=O)OC(C)C)c(Br)cc2F)CCC1	150 to 154
CCOc1ccccc1-c1nc2c(C)cccc2c(=O)[nH]1	177 to 180

SMILES	melting point [°C]
COc1ccc(C(=O)c2ccccc2F)c(Cl)c1Cl	74 to 77
CC(C)CC(=Cc1ccccc1)C(=O)O	66 to 67.5
Cc1cn(C2OC(CO)C(O)C2F)c(=O)[nH]c1=O (stereo not given)	185 to 186
Cc1ccc(CCCc2c(C)nc(N)nc2N)cc1	210 to 213
Cc1nn(-c2ccc(C(F)(F)F)cn2)cc1COc1cc(CCC(=O)O)n(C)n1	154 to 155
OC(Cc1ccccc1)c1ccccc1Br (stereo not given)	84 to 85
Cc1ccc(C(=O)c2ccn(C)c2C)cc1	80 to 82
CC(C)(O)C1COCc2nc3c(N)nc4ccccc4c3n21 (stereo not given)	216 to 217
CC(=O)OC1O[C@H](CN=[N+]=[N-])[C@H](OC(C)=O)[C@H](OC(C)=O)[C@H]1OC(C)=O (stereo not given in full)	89.9 to 90.3
CCOC(=O)/C=C/c1ccc(OCCN2CCCC2=O)cc1OCc1ccccc1	94 to 97
BrC(Br)c1nccnc1C(Br)Br	167 to 170
O=C1NC(=O)c2c1ccc(N1C(=O)C=CC1=O)c2N1C(=O)C=CC1=O	180 to 200
COCn1c(-c2nccs2)c(Cl)c2cccc(NS(=O)(=O)c3cccs3)c21	128 to 129
COc1ccc(Cl)c(Nc2c(C#N)cnc3c2C=C2N=CN=C2C3)c1	296 to 298
O=C1C2=C(NCCC2)N(c2ccccc2)C2=NCCN12	248 to 250
O=C(OCCCc1ccccc1)c1ccc2c(c1)C(Cl)(Cl)c1cc(C(=O)OCCCc3ccccc3)ccc1-2	91 to 92
CSc1nc(-c2cccnc2)c(-c2ccccc2)n1C	123 to 127
CCC1(CC)CC(c2ccc(F)cc2)=C(c2ccc(S(N)(=O)=O)cc2)C1	101
CC1(C)OC(=S)Nc2ccc(-c3cccc(F)c3F)cc21	197 to 198
CC12CCC(O)CC1CCC1C2CCC2(C)C(OCCO)CCC12 (stereo not given)	181 to 183
CC(C)(C)c1cc(-c2cncc(C3SC(N4CCOCC4)=NC3=O)c2)ccc1O (stereo not given)	231 to 234
COc1cccc(C2CCc3cc(OC)ccc3C2=O)c1 (stereo not given)	81 to 82
COc1ccc(Cc2nnc(-c3ccc4occc4c3)o2)cc1	108 to 109
CN1C(=O)CC[C@]2(C)c3ccc(-c4ccc(Cl)c(Cl)c4)cc3CC[C@@H]12	129 to 135
Cc1cc2cn[nH]c(=O)c2n1CC(C)C	188 to 191

SMILES	melting point [°C]
CC(=O)N[C@@H]1CCN(S(=O)(=O)c2ccc(Cl)c(COc3cccc4c(-n5ccnc5)cc(C)nc34)c2Cl)C1	246
C=CCN1CCCC1CNC(=O)c1cc(S(=O)(=O)CC)cc2c1OCCO2 (stereo not given)	78 to 80
O=C1CCCc2c1cccc2N1CCN(CCCCOc2ccc3ccc(=O)[nH]c3n2)CC1	158 to 160
COC(=O)[C@H]1C=C(C2CCCCC2)OC(=O)[C@H]1Cc1ccccc1	87 to 89
O=C(O)c1cc(C(=O)O)c2c(c1)C(C(=O)O)CC(c1ccccc1)N2 (stereo not given)	300
CCCCn1cnc2c(Oc3ccccc3)nc(Nc3ccc(OC)cc3OC)nc21	97 to 99
CCc1cc(C=Cc2ccccc2O)on1	175 to 176
CCOC(=O)CN1C(=O)C(=O)N(C)C1=O	97 to 98.5
N#CCc1ccc(NC(=O)C(F)(F)C(F)(F)C(F)(F)C(F)(F)F)cc1	126 to 128
O=C(O)Cc1nn(C(c2ccccn2)c2ncno2)c(=O)c2ccccc12 (stereo not given)	196 to 200
O=C(c1ccccc1)N1CCc2[nH]c3c(-c4ccccc4)cccc3c2CC1	198 to 200
Cc1nc(-c2ncn3c2[C@@H]2CCCN2C(=O)c2c(Cl)cccc2-3)no1	205 to 206
CCCCN(CCCC)c1ccc(C=Cc2ccc(C=CC3=C(C#N)C(=C(C#N)C#N)OC3(C)C(F)(F)F)s2)c(OCc2ccccc2)c1 (stereo not given)	184 to 185
CC(C)(COc1ccc([N+](=O)[O-])cc1)c1ccccc1	79 to 80
CCCCn1nc(CCc2ccccc2)nc1Cc1ccc(-c2ccccc2-c2nnn[nH]2)nc1	121 to 123
COc1cc2c(cc1OC)C1CC(=O)C3CCCCC3N1CC2 (stereo not given)	129 to 141
Cc1cc(-c2cnn3c(C(F)(F)F)cc(-c4ccc(F)c(Cl)c4)nc23)cc(C)n1	271
CCCCCCCCCCCCN(Cc1cccnc1)S(C)(=O)=O	43 to 44
CC(C)(C)[C@H]1N(c2ccc(C#N)c3ccccc23)C(=O)[C@@H]2C[C@@H](OCc3ccccc3)CN21	155 to 157
COC(=O)CCc1ccc(OC2Cc3ccccc3C2)cc1	73 to 74
Cc1cc(O)c(C(=O)CCC(F)(F)F)c(=O)o1	104
CC(=O)N1CCc2nc(Nc3nc(-c4ccccc4)cs3)nc(-c3ccccc3)c2C1	130 to 132
Cc1nc(N(Cc2ccccc2)Cc2ccccc2)c2nc(Cc3ccccc3)n(CCc3ccccc3)c2c1C	139 to 141
OCC1=C(c2cccc3sccc23)N2CCN=C2S1	145 to 149
CC(C)(C)c1ncc(Br)cn1	50 to 51

SMILES	melting point [°C]
OCc1cccc2c(-c3ccc(Br)cc3)nccc12	226
CCCN(C(N)=S)c1ccc(Cl)cc1Cl	121
COc1ccc(Cn2c(S)nc3ccccc32)cc1	199 to 200
CCOCc1cc2cc(Br)ccc2oc1=Nc1ccccc1	78 to 80
COc1cc(Nc2c(C#N)cnc3cc4cc(OCCCCl)c(OC)cc4cc23)c(Cl)cc1Cl	220 to 223
CC(C)(C)c1ccc(S(=O)(=O)Oc2ccc(C(C)(C)c3ccc(OS(=O)(=O)c4ccc(C(C)(C)C)cc4)cc3)cc2)cc1	124 to 127
C[C@@H]1CN(c2ncc(Cl)cc2Cl)CCN1c1nc2c(Br)cc(C(F)(F)F)cc2[nH]1	135 to 137
CC(CO)(CO)OCc1ccccc1	89.5 to 90
CN1C(=O)[C@H](NC(=O)CCc2ccc(Cl)cc2Cl)N=C(c2ccccc2)c2cc(NS(C)(=O)=O)ccc21	130 to 148
CC(C)C(NS(=O)(=O)c1ccc(Cl)cc1)C(=O)Nc1ccc(CC(=O)O)cc1 (racemic)	228 to 230
CC(=Cc1cccc(SC(F)(F)F)c1)[N+](=O)[O-]	48
CCC(=O)N1Cc2cn[nH]c2-c2cc(N)ccc21	218 to 220
COc1cccc2sc(-c3ccc(C(=O)O)cc3)nc12	289 to 291
CCC#COc1ccc(S(=O)(=O)NC(CSCc2ccccc2)C(=O)NO)cc1 (stereo not given)	137 to 138
O=C(O)[C@H](Cc1ccsc1)NN1C(=O)c2ccccc2C1=O	166 to 168
O=c1[nH]c2cc([N+](=O)[O-])c(S(=O)(=O)N(CCO)CCO)cc2[nH]c1=O	310 to 321
O=C(N[C@H]1CC[C@H](CCN2CCN(c3nccc4c3OCC4)CC2)CC1)c1ccc(Cl)cc1Cl	244
OC(CCCCCOc1ccccc1)c1cccc(OCc2ccc3ccccc3n2)c1 (stereo not given)	83 to 84.5
CCSCc1c(S(C)(=O)=O)ccc(C(=O)O)c1Cl	172 to 174
O=C1C=CC(O)(C(F)(F)F)C=C1	84 to 86
CC(=O)N[C@H]1C[C@@H](c2cc(NC(=O)Cc3cccc4ccccc34)n[nH]2)C1	209
CC(C)c1ccc([N+](=O)[O-])c(C(C)C)c1NC(=O)CN1CCN(CCSc2nc3cccc([N+](=O)[O-])c3o2)CC1	70 to 72
COc1ccc(S(=O)(=O)Nc2c(Cl)ncnc2Nc2ccccc2)cc1	174 to 175
CCCCc1ncc(/C=C(\Cc2ccc(N)cc2)C(=O)O)n1Cc1ccccc1Cl	191 to 192
CCNC(=O)N1CC(Oc2cccc(C(F)(F)F)c2)C1	125 to 126
